Measured values as given in US20120323164A1, “PHOTODYNAMIC THERAPY WITH PHTHALOCYANINES AND RADICAL SOURCES” (Case Western Reserve University, priority 2011, published 2012).
“And” between values parts separate entries of the source, which are not always exact repeats. Equal values may be shown once. Read-outs that look alike come from different tables or passages of the source.

Tests used:
[1] = Qualitative solubility in organic solvents
[2] = Photodecomposition of phthalocyanines in toluene under white light, no added radical source; conditions: for decomp (%): toluene ~9 μM, white light 1.2 kJ/s/m^2
Description: The distance between the cuvette face and the lamp filament was 30 cm. Determination of the beam intensity at the cuvette face was made with a powermeter (Powermax, pm10, Coherent, Santa Clara, Calif.). The beam intensity was checked before each measurement.
Solutions for the photodecomposition experiments were prepared as follows. […] This assumption was justified on the basis that all of the silicon phthalocyanines studied contained simple, unsubstituted phthalocyanine rings. The extinction coefficients of the aluminum phthalocyanines were assumed to be 2.3×10^5, the extinction coefficient of AlPcOSi(CH3)2(CH2)3N(CH3)2, Pc 1.
The absorbance of the Q band of the solution, A, was determined with a spectrophotometer (Lambda 25, Perkin Elmer, Shelton, Conn.; fused silica cuvettes, 1.00 cm, 3.5 mL, Fisher Scientific). From A, ε, the cuvette path length, b, and Beer's law, the concentration of the solution, c, was determined. The solution was then diluted with toluene to a concentration of 9.2 μM. To verify that this was the concentration of the solution, its absorbance was measured again.
In a typical determination, the solution (3.00 mL) was placed in a cuvette (1.00 cm, 3.5 mL, Fisher Scientific, Pittsburgh, Pa.) and its absorbance was measured with the spectrometer (Lambda 25) before irradiation and at 2, 4, 6 and 8 h.
where A0 is the absorbance of the solution at time 0, and At is the absorbance at time t.

[3] = for decomp (%) of Pc 4: Pc 4 in toluene ~9 μM, white light 1.2 kJ/s/m^2
Description: The beam intensity was checked before each measurement.
Solutions for the photodecomposition experiments were prepared as follows.

[4] = time 2 h, radiation 86 kJ/mol × 10^−6, no added alkene
[5] = time 4 h, radiation 172 kJ/mol × 10^−6, no added alkene
[6] = time 6 h, radiation 258 kJ/mol × 10^−6, no added alkene
[7] = time 8 h, radiation 344 kJ/mol × 10^−6, no added alkene
[8] = time 0 h, alkene 1:100 mole ratio
[9] = time 0 h, alkene 1:1000 mole ratio
[10] = time 2 h, alkene 1:100 mole ratio
[11] = time 2 h, alkene 1:1000 mole ratio
[12] = time 4 h, alkene 1:100 mole ratio
[13] = time 4 h, alkene 1:1000 mole ratio
[14] = time 6 h, alkene 1:100 mole ratio
[15] = time 6 h, alkene 1:1000 mole ratio
[16] = time 8 h, alkene 1:100 mole ratio
[17] = time 8 h, alkene 1:1000 mole ratio

## CC1=C(/C=C/C(C)=C/C=C/C(C)=C/C(=O)O)C(C)(C)CCC1.CC1=C(/C=C/C(C)=C/C=C/C(C)=C/C(=O)O)C(C)(C)CCC1.CN(C)CCC[Si](C)(C)O[Si]1(O[Si](C)(C)CCCN(C)C)n2c3c4ccccc4c2N=C2N=C(N=c4c5ccccc5c(n41)=NC1=NC(=N3)c3ccccc31)c1ccccc12 [Pc 293, SiPc[OSi(CH3)2(CH2)3NH(CH3)2]2^2+ [OC(O)(CH═C(CH3)CH═CH)2C6H6(CH3)3]2]
[1]
  solubility (in words): soluble in ethanol, CH2Cl2 and dimethylformamide, moderately soluble in toluene, and insoluble in hexanes

## C=C[Si](C=C)(C=C)O[Si]1(O[Si](C=C)(C=C)C=C)n2c3c4ccccc4c2N=C2N=C(N=c4c5ccccc5c(n41)=NC1=NC(=N3)c3ccccc31)c1ccccc12 [Pc 279, SiPc[OSi(CH═CH2)3]2]
[1]
  solubility (in words): soluble in CH2Cl2, dimethylformamide, pyridine and toluene, and insoluble in hexanes and methanol
[2]; time 0 h, no added alkene
  decomp (%): 0%
[2]; [4]
  decomp (%): 0%
[2]; [5]
  decomp (%): 0%
[2]; [6]
  decomp (%): 0%
[2]; [7]
  decomp (%): 0%
[2]; white light, toluene, no added alkene
  photostability (in words): quite stable, remaining unchanged during 8 hours of irradiation

## CC(C)=CCC/C(C)=C/CC/C(C)=C/CC/C=C(\C)CC/C=C(\C)CCC=C(C)C [squalene]
[3]; [8]
  decomp (%) of Pc 4: 0%
[3]; [9]
  decomp (%) of Pc 4: 0%
[3]; [10]
  decomp (%) of Pc 4: 50%
[3]; [11]
  decomp (%) of Pc 4: 57%
[3]; [12]
  decomp (%) of Pc 4: 75%
[3]; [13]
  decomp (%) of Pc 4: 81%
[3]; [14]
  decomp (%) of Pc 4: 87%
[3]; [15]
  decomp (%) of Pc 4: 92%
[3]; [16]
  decomp (%) of Pc 4: 94%
[3]; [17]
  decomp (%) of Pc 4: 96%

## CC/C=C\C/C=C\C/C=C\C/C=C\C/C=C\C/C=C\CCC(=O)O.CC/C=C\C/C=C\C/C=C\C/C=C\C/C=C\C/C=C\CCC(=O)O.CN(C)CCC[Si](C)(C)O[Si]1(O[Si](C)(C)CCCN(C)C)n2c3c4ccccc4c2N=C2N=C(N=c4c5ccccc5c(n41)=NC1=NC(=N3)c3ccccc31)c1ccccc12 [Pc 292, SiPc[OSi(CH3)2(CH2)3NH(CH3)2]2^2+ [OC(O)CH2(CH2CH═CH)6CH2CH3]2^−]
[1]
  solubility (in words): soluble in ethanol, CH2Cl2 and dimethylformamide, moderately soluble in toluene, and insoluble in hexanes
[2]; time 0 h, no added alkene
  decomp (%): 0%
[2]; [4]
  decomp (%): 20%
[2]; [5]
  decomp (%): 21%
[2]; [6]
  decomp (%): 22%
[2]; [7]
  decomp (%): 22%

## SiPc[O(CH2CH═C(CH3)CH2)2CH2CH═C(CH3)2]2 [Pc 303]
[1]
  solubility (in words): soluble in CH2Cl2, dimethylformamide, pyridine and toluene, and insoluble in hexanes and methanol
[2]
  stability in the dark: stable in the dark
[2]; time 0 h, no added alkene
  decomp (%): 0%
[2]; [4]
  decomp (%): 1%
[2]; [5]
  decomp (%): 2%
[2]; [6]
  decomp (%): 2%
[2]; [7]
  decomp (%): 2%

## HOSiPcOSi(CH3)2(CH2)3N(C2H5)2 [Pc 34]
[1]
  solubility (in words): soluble in CH2Cl2, dimethylformamide, and toluene, and insoluble in hexanes

## CCCCC/C=C\C/C=C\C/C=C\C/C=C\CCCC(=O)O.CCCCC/C=C\C/C=C\C/C=C\C/C=C\CCCC(=O)O.CN(C)CCC[Si](C)(C)O[Si]1(O[Si](C)(C)CCCN(C)C)n2c3c4ccccc4c2N=C2N=C(N=c4c5ccccc5c(n41)=NC1=NC(=N3)c3ccccc31)c1ccccc12 [Pc 291, SiPc[OSi(CH3)2(CH2)3NH(CH3)2]2^2+ [OC(O)(CH2)2(CH2CH═CH)4(CH2)4CH3]2]
[1]
  solubility (in words): soluble in ethanol, CH2Cl2 and dimethylformamide, moderately soluble in toluene, and insoluble in hexanes
[2]; time 0 h, no added alkene
  decomp (%): 0%
[2]; [4]
  decomp (%): 18%
[2]; [5]
  decomp (%): 19%
[2]; [6]
  decomp (%): 20%
[2]; [7]
  decomp (%): 20%

## SiPc[O(CH2)4CH3]2 [Pc 307]
[1]
  solubility (in words): soluble in CH2Cl2, dimethylformamide, pyridine and toluene, and insoluble in hexanes and methanol
[2]
  stability in the dark: stable in the dark
[2]; time 0 h, no added alkene
  decomp (%): 0%
[2]; [4]
  decomp (%): 23%
[2]; [5]
  decomp (%): 55%
[2]; [6]
  decomp (%): 80%
[2]; [7]
  decomp (%): 90%

## SiPc[OC(O)CH2(CH2CH═CH)6CH2CH3]2 [Pc 300]
[1]
  solubility (in words): soluble in CH2Cl2, dimethylformamide, pyridine and toluene, slightly soluble in hexanes, and insoluble in methanol
[2]; time 0 h, no added alkene
  decomp (%): 0%
[2]; [4]
  decomp (%): 16%
[2]; [5]
  decomp (%): 34%
[2]; [6]
  decomp (%): 46%
[2]; [7]
  decomp (%): 56%

## CC(C)=CCC/C(C)=C/CC/C(C)=C/CO [farnesol]
[3]
  effectiveness of alkene in decreasing photostability of Pc 4 (in words): most effective
[3]; [8]
  decomp (%) of Pc 4: 0%
[3]; [9]
  decomp (%) of Pc 4: 0%
[3]; [10]
  decomp (%) of Pc 4: 13%
[3]; [11]
  decomp (%) of Pc 4: 79%
[3]; [12]
  decomp (%) of Pc 4: 20%
[3]; [13]
  decomp (%) of Pc 4: 93%
[3]; [14]
  decomp (%) of Pc 4: 38%
[3]; [15]
  decomp (%) of Pc 4: 99%
[3]; [16]
  decomp (%) of Pc 4: 50%
[3]; [17]
  decomp (%) of Pc 4: 99%

## CC/C=C\C/C=C\C/C=C\CCCCCCCC(=O)O.CC/C=C\C/C=C\C/C=C\CCCCCCCC(=O)O.CN(C)CCC[Si](C)(C)O[Si]1(O[Si](C)(C)CCCN(C)C)n2c3c4ccccc4c2N=C2N=C(N=c4c5ccccc5c(n41)=NC1=NC(=N3)c3ccccc31)c1ccccc12 [Pc 290, SiPc[OSi(CH3)2(CH2)3NH(CH3)2]2^2+ [OC(O)(CH2)6(CH2CH═CH)3CH2CH3]2]
[1]
  solubility (in words): soluble in ethanol, CH2Cl2 and dimethylformamide, moderately soluble in toluene, and insoluble in hexanes

## SiPc[OC(O)(CH2)2(CH2CH═CH)4(CH2)4CH3]2 [Pc 299]
[1]
  solubility (in words): soluble in CH2Cl2, dimethylformamide, pyridine and toluene, slightly soluble in hexanes, and insoluble in methanol
[2]; time 0 h, no added alkene
  decomp (%): 0%
[2]; [4]
  decomp (%): 7% and 12%
[2]; [5]
  decomp (%): 12% and 21%
[2]; [6]
  decomp (%): 14% and 27%
[2]; [7]
  decomp (%): 17% and 33%

## CC(C)CCCC(C)CCCC(C)CCOc1cc2c(cc1OCCC(C)CCCC(C)CCCC(C)C)-c1nc-2nc2[nH]c(nc3nc(nc4[nH]c(n1)c1ccccc41)-c1ccccc1-3)c1ccccc21 (centres unmarked) [Pc 272, H2Pc[2,3-O(C2H4CH(CH3)CH2)2C2H4CH(CH3)2]2]
[1]
  solubility (in words): soluble in CH2Cl2 and toluene, and slightly soluble in dimethylformamide and hexanes

## SiNc[OSi(CH3)2(CH2)3N(CH3)2]2 [Compound 41]
[1]
  solubility (in words): soluble in CH2Cl2, dimethylformamide, and toluene, and insoluble in hexanes

## CCCCCCCC/C=C\CCCCCCCC(=O)O[Si]1(OC(=O)CCCCCCC/C=C\CCCCCCCC)n2c3c4ccccc4c2N=C2N=C(N=c4c5ccccc5c(n41)=NC1=NC(=N3)c3ccccc31)c1ccccc12 [Pc 295, SiPc[OC(O)(CH2)7CH═CH(CH2)7CH3]2]
[1]
  solubility (in words): soluble in CH2Cl2, dimethylformamide, pyridine and toluene, slightly soluble in hexanes, and insoluble in methanol
[2]; time 0 h, no added alkene
  decomp (%): 0%
[2]; [4]
  decomp (%): 2%
[2]; [5]
  decomp (%): 3%
[2]; [6]
  decomp (%): 3%
[2]; [7]
  decomp (%): 4%

## CoPc[2,3-O(C2H4CH(CH3)CH2)2C2H4CH(CH3)2]2 [Pc 273]
[1]
  solubility (in words): slightly soluble in CH2Cl2, dimethylformamide, toluene, and hexanes

## SiPc[OC(O)(CH2)6(CH2CH═CH)2(CH2)4CH3]2 [Pc 296]
[1]
  solubility (in words): soluble in CH2Cl2, dimethylformamide, pyridine and toluene, slightly soluble in hexanes, and insoluble in methanol
[2]; time 0 h, no added alkene
  decomp (%): 0%
[2]; [4]
  decomp (%): 2%
[2]; [5]
  decomp (%): 3%
[2]; [6]
  decomp (%): 4%
[2]; [7]
  decomp (%): 5%

## ZnPc[2,3-O(C2H4CH(CH3)CH2)2C2H4CH(CH3)2]2 [Pc 275]
[1]
  solubility (in words): slightly soluble in CH2Cl2, dimethylformamide, toluene, and hexanes

## CCCCC/C=C\C/C=C\CCCCCCCC(=O)O [linoleic acid]
[3]; [9]
  decomp (%) of Pc 4: 0%
[3]; [11]
  decomp (%) of Pc 4: 40%
[3]; [13]
  decomp (%) of Pc 4: 72%
[3]; [15]
  decomp (%) of Pc 4: 89%
[3]; [17]
  decomp (%) of Pc 4: 99%

## C1=C\CC/C=C\CC/1 [1,5-cyclooctadiene]
[3]; [9]
  decomp (%) of Pc 4: 0%
[3]; [11]
  decomp (%) of Pc 4: 23%
[3]; [13]
  decomp (%) of Pc 4: 49%
[3]; [15]
  decomp (%) of Pc 4: 69%
[3]; [17]
  decomp (%) of Pc 4: 83%

## CCCCC/C=C\C/C=C\CCCCCCCC(=O)O.CCCCC/C=C\C/C=C\CCCCCCCC(=O)O.CN(C)CCC[Si](C)(C)O[Si]1(O[Si](C)(C)CCCN(C)C)n2c3c4ccccc4c2N=C2N=C(N=c4c5ccccc5c(n41)=NC1=NC(=N3)c3ccccc31)c1ccccc12 [Pc 289, SiPc[OSi(CH3)2(CH2)3NH(CH3)2]2^2+ [OC(O)(CH2)6(CH2CH═CH)2(CH2)4CH3]2]
[1]
  solubility (in words): soluble in ethanol, CH2Cl2 and dimethylformamide, moderately soluble in toluene, and insoluble in hexanes
[2]; time 0 h, no added alkene
  decomp (%): 0%
[2]; [4]
  decomp (%): 18%
[2]; [5]
  decomp (%): 19%
[2]; [6]
  decomp (%): 20%
[2]; [7]
  decomp (%): 21%

## NiPc[2,3-O(C2H4CH(CH3)CH2)2C2H4CH(CH3)2]2 [Pc 274]
[1]
  solubility (in words): slightly soluble in CH2Cl2, dimethylformamide, toluene, and hexanes

## CC(C)=CCC/C(C)=C/CO [geraniol]
[3]
  effectiveness of alkene in decreasing photostability of Pc 4 (in words): most effective
[3]; [8]
  decomp (%) of Pc 4: 0%
[3]; [9]
  decomp (%) of Pc 4: 0%
[3]; [10]
  decomp (%) of Pc 4: 10%
[3]; [11]
  decomp (%) of Pc 4: 87%
[3]; [12]
  decomp (%) of Pc 4: 14%
[3]; [13]
  decomp (%) of Pc 4: 98%
[3]; [14]
  decomp (%) of Pc 4: 21%
[3]; [15]
  decomp (%) of Pc 4: 99%
[3]; [16]
  decomp (%) of Pc 4: 30%
[3]; [17]
  decomp (%) of Pc 4: 99%
